These results are taken from patent US20250034216A1, “STEREOSELECTIVE COVALENT LIGANDS FOR ONCOGENIC AND IMMUNOLOGICAL PROTEINS” (The Scripps Research Institute, priority 2021, published 2025).

The term IC50 denotes the point on the concentration scale where inhibition reaches its midpoint.

For assay [1], the system named is SIINFEKL presentation in E.G7-Ova cells. Nature of the assay: FACS analysis with citric acid wash. It counts as cell-based, mouse. The conditions noted are these: 4 h treatment, recovery up to 4 h. Here is the method: E.G7-Ova cells (2 million/mL) were treated with compounds for 4 hours, washed with PBS, and then washed with 1 mL of 131 mM citric acid for 2 minutes, quenched with 1 mL 66 mM NaH2PO4, and then washed with PBS 3 times. Cells were then resuspended in warm RPMI and allowed to recover for the indicated period, after which cells were washed with PBS and transferred to 96 well plates for staining. Each well was washed with 200 μL PBS, and then stained for 20 minutes with 50 μL of staining solution: 1:1000 fixable near-IR LIVE/DEAD stain (Invitrogen) and 1:200 dilution of anti-SIINFEKL (BioLegend) or anti-Kb (BioLegend) antibody in FACS buffer (2% FBS in PBS supplemented with PenStrep and sterile filtered). Additional wells were used as unstained or singly-stained controls. After staining, cells were washed with PBS, then fixed in 200 μL 4% paraformaldehyde in PBS for 15 minutes. Cells were resuspended in 75 μL FACS buffer and analyzed on a Novocyte flow cytometer. The corresponding data in FIG. 2J are presented as the average percentage of median fluorescence intensity relative to DMSO treated control±SD from n=4 replicates. The corresponding data in FIG. 2K are presented as the average percentage of MFI relative to DMSO treated control±SD from n=3 replicates. Statistical analysis was performed using GraphPad PRISM Version 9.0.0.
A general note: A flow cytometer gives signals particle by particle.

In assay [2] the target is T1, recombinant FLAG-PSME1 (PSME1_C22) (Homo sapiens, UniProt Q06323).
T1 construct: FLAG (C); expressed in transfected cells; host or cells: HEK293T (lysate treated in vitro)
T1 sequence (Q06323 whole entry): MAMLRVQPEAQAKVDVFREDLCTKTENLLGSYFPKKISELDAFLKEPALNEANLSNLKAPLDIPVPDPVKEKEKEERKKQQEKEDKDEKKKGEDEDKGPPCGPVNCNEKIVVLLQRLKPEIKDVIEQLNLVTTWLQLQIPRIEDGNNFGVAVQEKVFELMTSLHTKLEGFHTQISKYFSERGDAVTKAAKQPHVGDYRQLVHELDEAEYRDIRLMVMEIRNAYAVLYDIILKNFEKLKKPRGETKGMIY
The assay can be described thus: Gel-based ABPP for PSME1 cysteine engagement. It counts as binding. The conditions noted are these: HEK293T lysates expressing FLAG-PSME1, in vitro, then 2.5 μM MY-11B 30 min; read-out: IC50 for engaging PSME1_C22 (competition against MY-11B labeling). Here is the method:
C-terminally FLAG-tagged PSME1 WT or C22A were transiently expressed in HEK293T cells, harvested 48 hours later, then cells were divided into aliquots, flash frozen and stored at −80 C. On the day of the experiment, an aliquot of cells were thawed, lysed by sonication in ice-cold PBS supplemented with cOmplete protease inhibitors (1 tablet/10 mL of PBS). normalized to 2.0 mg/mL, and divided into 25 μL aliquots. 1 μL of DMSO or compound (25× stock) was incubated with lysates for 1.5 hours at RT, followed by incubation with 1 μL of 62.5 μM MY-11B click probe (final concentration […]) for an additional 30 minutes. Reagents for the CuAAC click reaction were pre-mixed prior to addition to the samples. After 1 hour of click labeling, 4×SDS running buffer was added to samples, which were then analyzed by SDS-PAGE. ImageJ was used to quantify rhodamine band intensities, and GraphPad PRISM Version 9.0.0 was used to generate IC50 curves (four-parameter variable slope least squares regression).

The target in a further assay is T2, PHF5A_C26 (Homo sapiens, UniProt O75533+Q7RTV0).
T2 construct: endogenous in cells
T2 sequence (Q7RTV0 whole entry): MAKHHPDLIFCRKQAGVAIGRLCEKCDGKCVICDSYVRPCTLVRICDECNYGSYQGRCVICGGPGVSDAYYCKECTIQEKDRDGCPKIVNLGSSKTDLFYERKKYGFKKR
T2 sequence (O75533 whole entry): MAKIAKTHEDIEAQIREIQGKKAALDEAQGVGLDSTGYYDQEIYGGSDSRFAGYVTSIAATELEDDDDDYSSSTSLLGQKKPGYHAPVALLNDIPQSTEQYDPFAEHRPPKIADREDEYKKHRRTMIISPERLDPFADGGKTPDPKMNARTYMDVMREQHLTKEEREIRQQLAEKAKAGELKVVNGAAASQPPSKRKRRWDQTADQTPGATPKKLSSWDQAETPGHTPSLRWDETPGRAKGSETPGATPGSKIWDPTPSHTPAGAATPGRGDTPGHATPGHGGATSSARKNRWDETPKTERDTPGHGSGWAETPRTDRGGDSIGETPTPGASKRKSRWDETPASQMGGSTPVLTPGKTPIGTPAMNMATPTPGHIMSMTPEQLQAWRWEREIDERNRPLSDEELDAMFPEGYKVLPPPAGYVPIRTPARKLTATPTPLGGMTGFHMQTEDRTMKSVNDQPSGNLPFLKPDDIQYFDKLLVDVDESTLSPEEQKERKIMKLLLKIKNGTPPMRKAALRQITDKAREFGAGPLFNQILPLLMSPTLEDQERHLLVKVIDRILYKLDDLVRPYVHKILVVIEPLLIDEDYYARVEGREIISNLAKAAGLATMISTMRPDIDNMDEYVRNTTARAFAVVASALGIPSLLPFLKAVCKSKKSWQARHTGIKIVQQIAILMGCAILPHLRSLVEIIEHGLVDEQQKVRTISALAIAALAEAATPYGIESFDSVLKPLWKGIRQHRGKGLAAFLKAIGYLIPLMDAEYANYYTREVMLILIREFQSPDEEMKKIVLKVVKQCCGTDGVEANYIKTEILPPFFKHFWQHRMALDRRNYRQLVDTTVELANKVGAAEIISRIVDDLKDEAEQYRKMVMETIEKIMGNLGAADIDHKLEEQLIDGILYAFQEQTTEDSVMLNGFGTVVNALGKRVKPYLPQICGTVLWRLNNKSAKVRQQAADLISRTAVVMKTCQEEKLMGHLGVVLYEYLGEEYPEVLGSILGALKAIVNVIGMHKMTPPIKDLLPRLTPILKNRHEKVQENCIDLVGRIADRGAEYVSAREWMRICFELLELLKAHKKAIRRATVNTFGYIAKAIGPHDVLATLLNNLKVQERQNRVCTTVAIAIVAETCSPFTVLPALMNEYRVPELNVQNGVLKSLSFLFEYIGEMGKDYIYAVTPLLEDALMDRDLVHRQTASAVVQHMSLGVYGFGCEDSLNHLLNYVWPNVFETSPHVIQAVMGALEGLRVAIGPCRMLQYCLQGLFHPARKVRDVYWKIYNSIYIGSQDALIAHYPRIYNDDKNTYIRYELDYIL
T2 sequence (Q15393 whole entry partner): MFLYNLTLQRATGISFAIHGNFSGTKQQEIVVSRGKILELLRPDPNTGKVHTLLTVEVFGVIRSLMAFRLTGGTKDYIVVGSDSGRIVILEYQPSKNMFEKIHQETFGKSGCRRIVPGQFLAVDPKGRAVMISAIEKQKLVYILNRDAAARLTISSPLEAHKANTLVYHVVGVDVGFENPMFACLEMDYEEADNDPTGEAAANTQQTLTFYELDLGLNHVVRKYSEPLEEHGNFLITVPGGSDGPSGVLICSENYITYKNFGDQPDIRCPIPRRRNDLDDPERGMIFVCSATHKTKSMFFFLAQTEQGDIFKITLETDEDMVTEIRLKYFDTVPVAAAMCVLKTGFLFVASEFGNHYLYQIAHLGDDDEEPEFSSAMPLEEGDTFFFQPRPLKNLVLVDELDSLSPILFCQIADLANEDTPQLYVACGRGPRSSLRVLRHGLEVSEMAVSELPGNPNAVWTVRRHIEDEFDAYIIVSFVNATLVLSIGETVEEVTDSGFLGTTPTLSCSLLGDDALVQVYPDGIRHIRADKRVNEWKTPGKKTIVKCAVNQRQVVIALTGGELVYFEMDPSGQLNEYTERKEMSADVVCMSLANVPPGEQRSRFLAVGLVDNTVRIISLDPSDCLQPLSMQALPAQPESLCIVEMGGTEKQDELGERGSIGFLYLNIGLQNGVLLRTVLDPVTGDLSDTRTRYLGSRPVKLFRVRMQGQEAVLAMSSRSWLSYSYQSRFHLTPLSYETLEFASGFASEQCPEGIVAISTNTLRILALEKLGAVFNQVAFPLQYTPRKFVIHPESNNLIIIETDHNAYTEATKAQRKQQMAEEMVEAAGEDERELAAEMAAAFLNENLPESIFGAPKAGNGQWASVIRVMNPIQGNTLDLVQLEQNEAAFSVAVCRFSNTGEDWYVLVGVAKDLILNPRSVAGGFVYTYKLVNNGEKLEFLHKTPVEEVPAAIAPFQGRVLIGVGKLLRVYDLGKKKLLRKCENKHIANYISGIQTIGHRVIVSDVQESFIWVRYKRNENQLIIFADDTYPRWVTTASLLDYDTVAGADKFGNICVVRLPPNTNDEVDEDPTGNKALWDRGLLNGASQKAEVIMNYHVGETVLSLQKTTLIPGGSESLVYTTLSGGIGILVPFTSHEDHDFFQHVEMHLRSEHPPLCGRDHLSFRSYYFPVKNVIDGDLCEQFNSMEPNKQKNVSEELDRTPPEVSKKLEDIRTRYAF
T2 sequence (Q9BWJ5 whole entry partner): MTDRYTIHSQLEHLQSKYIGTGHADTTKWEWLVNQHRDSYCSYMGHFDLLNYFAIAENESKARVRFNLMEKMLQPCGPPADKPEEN
Nature of the assay: IA-DTB cysteine reactivity profiling. It counts as binding. The protocol: Sample preparation: Cells (adherent: 15 cm dishes, suspension: 2 million cells/mL) were treated with electrophilic probes in situ for indicated times and concentrations, washed with ice-cold PBS, and flash frozen in liquid nitrogen. Cell pellets were lysed by sonication (8 pulses, 40% power) in 500 μL ice-cold PBS supplemented with cOmplete protease inhibitors (1 tablet/10 mL of PBS). Whole cell lysates protein content was measured using a standard DC protein assay (Bio-Rad) and 500 μL (2 mg/mL protein content) were treated with 5 μL of 10 mM 1A-DTB (in DMSO) for 1 h at ambient temperature with occasional vortexing. Samples were methanol-chloroform precipitated with the addition of 500 μL ice-cold MeOH and 200 μL CHCl3, vortexed, and centrifuged (10 min, 10,000 g). Without disrupting the protein disk, both top and bottom layers were aspirated and the protein disk was washed with 1 mL ice-cold MeOH and centrifuged (10 min, 10,000 g). The pellets were allowed to air dry, and then re-suspended in 90 μL buffer (9 M urea, 10 mM DTT, 50 mM TEAB pH 8.5). […]
Data processing: Cysteine engagement ratios (probe vs DMSO) were calculated for each peptide-spectra match by dividing each TMT reporter ion intensity by the average intensity for the channels corresponding to DMSO treatment. […]

A further assay deals with p27. Nature of the assay: anti-p27 western blot. It counts as cell-based, human. The conditions noted are these: 22Rv1 cells, 24 h.

Regarding `CC#CC(=O)N1C[C@H](c2ccc(Br)cc2)[C@@H]1C(=O)Nc1cccc2cccnc12` [MY-45B, (2R,3S)-3-(4-bromophenyl)-1-(but-2-ynoyl)-N-(quinolin-8-yl)azetidine-2-carboxamide], in assay [1], the “SIINFEKL presentation after acid wash” value is “time- and concentration-dependent reduction in SIINFEKL presentation”. For the same compound, the IC50 in assay [2] is about 400 nM.

For the compound `C=CC(=O)N1[C@H](c2ccc3c(c2)OCO3)c2[nH]c3ccccc3c2C[C@H]1C(=O)N1CCOCC1` [WX-02-23, 1-((1R,3S)-1-(benzo[d][1,3]dioxol-S-yl)-3-(morpholine-4-carbonyl)-1,3,4,9-tetrahydro-2H-pyrido [3,4-b]indol-2-yl)prop-2-en-1-one], the “engagement of PHF5A_C26” value on PHF5A_C26 is “did not engage”. In the assay with p27, the p27 expression entry is reported as “induced expression of p27”.
